In general, Ki refers to a measure of affinity in units of concentration, obtained from inhibition or displacement. A low value points to higher affinity.

Consider 5 compounds from BindingDB's records for doi:10.3109/14756366.2013.777334 (S.G.S.I.T.S., 2014).

What all share (experiment): CA Inhibition Assay
What all share (conditions): pH 7.5; 4 °C

The target in one assay is Carbonic anhydrase 1 (Homo sapiens, UniProt P00915). As for the experimental part:
(§1) An applied photophysics stopped-flow instrument has been used for assaying the CA catalyzed CO2 hydration activity. […] The CO2 concentrations ranged from 1.7 to 17mM for the determination of the kinetic parameters and inhibition constants. […] The uncatalyzed rates were determined in the same manner and subtracted from the total observed rates. Stock solutions of inhibitor (0.1mM) were prepared in distilled-deionized water and dilutions up to 0.01nM were done thereafter with distilled deionized water.

For the next assay, the target named is Carbonic anhydrase 12 (Homo sapiens, UniProt O43570). As for the experimental part: as §1
Sequence of Carbonic anhydrase 12 (O43570 whole entry): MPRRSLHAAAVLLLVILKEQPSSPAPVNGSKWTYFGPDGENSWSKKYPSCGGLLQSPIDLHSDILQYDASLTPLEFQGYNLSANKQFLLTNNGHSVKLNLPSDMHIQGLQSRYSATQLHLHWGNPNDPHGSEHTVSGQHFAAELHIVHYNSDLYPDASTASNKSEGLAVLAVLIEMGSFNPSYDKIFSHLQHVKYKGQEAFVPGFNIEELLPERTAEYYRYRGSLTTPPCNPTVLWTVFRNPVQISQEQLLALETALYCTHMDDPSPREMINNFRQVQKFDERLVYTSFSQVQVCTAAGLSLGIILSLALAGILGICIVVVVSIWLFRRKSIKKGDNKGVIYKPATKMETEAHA
A further assay concerns the target Carbonic anhydrase 2 (Homo sapiens, UniProt P00918). How it is done: as §1

Sequence of Carbonic anhydrase 1 (P00915 whole entry): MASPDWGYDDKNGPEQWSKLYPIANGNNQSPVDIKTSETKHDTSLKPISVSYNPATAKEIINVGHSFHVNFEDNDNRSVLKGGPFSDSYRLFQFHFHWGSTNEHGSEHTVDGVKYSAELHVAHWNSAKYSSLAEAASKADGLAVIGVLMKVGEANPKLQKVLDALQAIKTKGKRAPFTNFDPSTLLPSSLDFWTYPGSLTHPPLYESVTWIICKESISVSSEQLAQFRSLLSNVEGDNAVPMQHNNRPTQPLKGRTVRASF

As for `Cc1cc(=O)oc2cc3ccccc3cc12` [4-Methyl-2H-benzo[g]chromen-2-one (5)], the values for the Ki on Carbonic anhydrase 1, at Carbonic anhydrase 12 and at Carbonic anhydrase 2 were 8.2 µM, 3.3 µM and more than 200 µM, respectively.

In the case of `Cc1cc(=O)oc2c1ccc1ccccc12` [4-Methyl-2H-benzo[h]chromen-2-one (4)], the inhibition constant (Ki) at Carbonic anhydrase 1 was 9 µM; on Carbonic anhydrase 12, 5.5 µM; at Carbonic anhydrase 2, more than 200 µM.

Take `Cc1cc(=O)oc2cc(O)ccc12` [4-Methyl-7-hydroxycoumarin]: the Ki on Carbonic anhydrase 1 was 4.8 µM; at Carbonic anhydrase 12, 4.3 µM; on Carbonic anhydrase 2, more than 200 µM.

In the case of `Cc1cc(=O)oc2c(O)c(O)ccc12` [7,8-Dihydroxy-4-methyl-2H-chromen-2-one (3)], the Ki was 8.7 µM at Carbonic anhydrase 1, 6.6 µM on Carbonic anhydrase 12 and more than 200 µM on Carbonic anhydrase 2.

Consider `Cc1cc(=O)oc2cc(O)cc(O)c12` [Coumarin derivative, 1b], for which the results for the Ki on Carbonic anhydrase 1 and at Carbonic anhydrase 12 were 8.4 µM and 6.4 µM, respectively.
